Legend:
[1] = test system: AMBEL (Ragweed, Common); experiment: Postemergence herbicidal evaluation; type: in vivo, Ambrosia artemisifolia; conditions: postemergence
Procedure, shortened: (§1)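 Two-week-old seedlings sprayed with compound in 50/50 acetone/water plus 0.5% TWEEN 20, at about 0.0156 to 0.500 kg/ha, nozzle at 40 psi. Kept in greenhouse; rated visually 4-5 weeks after treatment on a 0-9 scale versus control, repeat tests averaged.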

[2] = test system: CASOB (Sicklepod); experiment: Postemergence herbicidal evaluation; type: in vivo, Cassia obtusifolia; conditions: postemergence
Procedure, shortened: as §1

[3] = test system: CHEAL (Lambsquarters, Common); experiment: Postemergence herbicidal evaluation; type: in vivo, Chenopodium album; conditions: postemergence
Procedure, shortened: as §1

[4] = test system: GALAP (Galium); experiment: Postemergence herbicidal evaluation; type: in vivo, Galium aparine; conditions: postemergence
Procedure, shortened: as §1

[5] = test system: ECHCG (Barnyardgrass); experiment: Postemergence herbicidal evaluation; type: in vivo, Echinochloa crus-galli; conditions: postemergence
Procedure, shortened: as §1

[6] = test system: SETVI (Foxtail, Green); experiment: Postemergence herbicidal evaluation; type: in vivo, Setaria viridis; conditions: postemergence
Procedure, shortened: as §1

[7] = test system: GLXMAW (Soybean, Williams); experiment: Postemergence herbicidal evaluation; type: in vivo, Glycine max, (L.) Merr. cv Williams; conditions: postemergence
Procedure, shortened: as §1

[8] = test system: ORYSAT (Rice, Tebonnet); experiment: Postemergence herbicidal evaluation; type: in vivo, Oryza sativa, (L.) Tebonnet; conditions: postemergence
Procedure, shortened: as §1

[9] = test system: CHEAL (Lambsquarters, Common); experiment: Preemergence herbicidal evaluation; type: in vivo, Chenopodium album; conditions: rated 4-5 weeks after treatment
Procedure, shortened: (§2)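 Each species is sown separately in potting soil over roughly an inch of soil before any emergence. The soil surface then receives an aqueous acetone spray delivering about 0.0156 to 0.500 kg/ha of compound. After four to five weeks, injury is scored from 0 to 9 relative to a control.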

[10] = test system: IPOHE (Morningglory, Ivyleaf); experiment: Preemergence herbicidal evaluation; type: in vivo, Ipomoea hederacea; conditions: rated 4-5 weeks after treatment
Procedure, shortened: as §2

[11] = test system: ECHCG (Barnyardgrass); experiment: Preemergence herbicidal evaluation; type: in vivo, Echinochloa crus-galli; conditions: rated 4-5 weeks after treatment
Procedure, shortened: as §2

[12] = test system: SETVI (Foxtail, Green); experiment: Preemergence herbicidal evaluation; type: in vivo, Setaria viridis; conditions: rated 4-5 weeks after treatment
Procedure, shortened: as §2

[13] = test system: ZEAMX (Corn, Field); experiment: Preemergence herbicidal evaluation; type: in vivo, Zea mays; conditions: rated 4-5 weeks after treatment
Procedure, shortened: as §2

[14] = test system: ECHORC (Watergrass (Calif.)); experiment: Preemergence weed control under flooded paddy conditions; type: in vivo, Echinochloa oryzoides; conditions: rated 3-4 weeks after treatment
Procedure, shortened: (§3)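 Ratings on a 0-9 visual scale cover stand, vigor, malformation, size, chlorosis and overall appearance relative to a control, taken three to four weeks post-treatment. Application was into flood water over freshly sown silt loam at roughly 0.0313 to 0.500 kg/ha.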

[15] = test system: CYPIR (Rice Flatsedge); experiment: as above; type: in vivo, Cyperus iria; conditions: rated 3-4 weeks after treatment
Procedure, shortened: as §3

[16] = test system: CYPSE (Flatsedge); experiment: as above; type: in vivo, Cyperus serotinus; conditions: rated 3-4 weeks after treatment
Procedure, shortened: (§4)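 Seeds or propagules sown in silt loam kept flooded 1.5-3 cm; compounds in 50/50 acetone/water pipetted into flood water at about 0.0313 to 0.500 kg/ha. Greenhouse; visual 0-9 rating versus untreated control 3-4 weeks after treatment.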

[17] = test system: MOOVA (Monochoria); experiment: as above; type: in vivo, Monochoria vaginalis; conditions: rated 3-4 weeks after treatment
Procedure, shortened: as §4

CCOC(=O)CN1C(=O)C(CC(=O)NS(=O)(=O)C(C)C)SC1=Nc1cc(-n2c(=O)cc(C(F)(F)F)n(C)c2=O)c(F)cc1Cl (stereo not shown) [Compound 117, Ethyl 2-{{2-chloro-5-[3,6-dihydro-3-methyl-2,6-dioxo-4-(trifluoromethyl)-1(2H)-pyrimidinyl]-4-fluorophenyl}imino}-5-{[(isopropylsulfonyl)-carbamoyl]methyl}-4-oxo-3-thiazolidineacetate]
herbicidal rating AMBEL ([1]; rate 0.0158 kg/ha): 4.0 | herbicidal rating AMBEL ([1]; rate 0.0315 kg/ha): 5.0 | herbicidal rating AMBEL ([1]; rate 0.0630 kg/ha): 7.0 | herbicidal rating CASOB ([2]; rate 0.0158 kg/ha): 0.0 | herbicidal rating CASOB ([2]; rate 0.0315 kg/ha): 1.0 | herbicidal rating CASOB ([2]; rate 0.0630 kg/ha): 1.0 | herbicidal rating CHEAL ([3]; rate 0.0158 kg/ha): 0.0 | herbicidal rating CHEAL ([3]; rate 0.0315 kg/ha): 4.0 | herbicidal rating CHEAL ([3]; rate 0.0630 kg/ha): 9.0 | herbicidal rating GALAP ([4]; rate 0.0158 kg/ha): 1.0 | herbicidal rating GALAP ([4]; rate 0.0315 kg/ha): 1.0 | herbicidal rating GALAP ([4]; rate 0.0630 kg/ha): 1.0 | herbicidal rating ECHCG ([5]; rate 0.0158 kg/ha): 1.0 | herbicidal rating ECHCG ([5]; rate 0.0315 kg/ha): 2.0 | herbicidal rating ECHCG ([5]; rate 0.0630 kg/ha): 1.0 | herbicidal rating SETVI ([6]; rate 0.0158 kg/ha): 1.0 | herbicidal rating SETVI ([6]; rate 0.0315 kg/ha): 2.0 | herbicidal rating SETVI ([6]; rate 0.0630 kg/ha): 2.0 | herbicidal rating GLXMAW ([7]; rate 0.0158 kg/ha): 5.0 | herbicidal rating GLXMAW ([7]; rate 0.0315 kg/ha): 5.0 | herbicidal rating GLXMAW ([7]; rate 0.0630 kg/ha): 6.0 | herbicidal rating ORYSAT ([8]; rate 0.0158 kg/ha): 2.0 | herbicidal rating ORYSAT ([8]; rate 0.0315 kg/ha): 2.0 | herbicidal rating ORYSAT ([8]; rate 0.0630 kg/ha): 3.0 | Preemergence herbicidal rating CHEAL ([9]; rate 0.0156 kg/ha): 9.0 | Preemergence herbicidal rating CHEAL ([9]; rate 0.0313 kg/ha): 9.0 | Preemergence herbicidal rating CHEAL ([9]; rate 0.0625 kg/ha): 9.0 | Preemergence herbicidal rating CHEAL ([9]; rate 0.1250 kg/ha): 6.0 | Preemergence herbicidal rating CHEAL ([9]; rate 0.2500 kg/ha): 9.0 | Preemergence herbicidal rating IPOHE ([10]; rate 0.0156 kg/ha): 0.0 | Preemergence herbicidal rating IPOHE ([10]; rate 0.0313 kg/ha): 0.0 | Preemergence herbicidal rating IPOHE ([10]; rate 0.0625 kg/ha): 0.0 | Preemergence herbicidal rating IPOHE ([10]; rate 0.1250 kg/ha): 0.0 | Preemergence herbicidal rating IPOHE ([10]; rate 0.2500 kg/ha): 9.0 | Preemergence herbicidal rating ECHCG ([11]; rate 0.0156 kg/ha): 0.0 | Preemergence herbicidal rating ECHCG ([11]; rate 0.0313 kg/ha): 0.0 | Preemergence herbicidal rating ECHCG ([11]; rate 0.0625 kg/ha): 0.0 | Preemergence herbicidal rating ECHCG ([11]; rate 0.1250 kg/ha): 0.0 | Preemergence herbicidal rating ECHCG ([11]; rate 0.2500 kg/ha): 0.0 | Preemergence herbicidal rating SETVI ([12]; rate 0.0156 kg/ha): 1.0 | Preemergence herbicidal rating SETVI ([12]; rate 0.0313 kg/ha): 0.0 | Preemergence herbicidal rating SETVI ([12]; rate 0.0625 kg/ha): 1.0 | Preemergence herbicidal rating SETVI ([12]; rate 0.1250 kg/ha): 0.0 | Preemergence herbicidal rating SETVI ([12]; rate 0.2500 kg/ha): 0.0 | Preemergence herbicidal rating ZEAMX ([13]; rate 0.0156 kg/ha): 0.0 | Preemergence herbicidal rating ZEAMX ([13]; rate 0.0313 kg/ha): 0.0 | Preemergence herbicidal rating ZEAMX ([13]; rate 0.0625 kg/ha): 0.0 | Preemergence herbicidal rating ZEAMX ([13]; rate 0.1250 kg/ha): 1.0 | Preemergence herbicidal rating ZEAMX ([13]; rate 0.2500 kg/ha): 0.0 | herbicidal effect rating, ECHORC ([14]; 0.0313 kg/ha): 0.0 | herbicidal effect rating, ECHORC ([14]; 0.0625 kg/ha): 0.0 | herbicidal effect rating, ECHORC ([14]; 0.1250 kg/ha): 0.0 | herbicidal effect rating, ECHORC ([14]; 0.2500 kg/ha): 0.0 | herbicidal effect rating, CYPIR ([15]; 0.0313 kg/ha): 0.0 | herbicidal effect rating, CYPIR ([15]; 0.0625 kg/ha): 2.0 | herbicidal effect rating, CYPIR ([15]; 0.1250 kg/ha): 5.0 | herbicidal effect rating, CYPIR ([15]; 0.2500 kg/ha): 6.0 | herbicidal effect rating, CYPSE ([16]; 0.0625 kg/ha): 7.0 | herbicidal effect rating, CYPSE ([16]; 0.1250 kg/ha): 9.0 | herbicidal effect rating, CYPSE ([16]; 0.2500 kg/ha): 9.0 | herbicidal effect rating, MOOVA ([17]; 0.0313 kg/ha): 6.0 | herbicidal effect rating, MOOVA ([17]; 0.0625 kg/ha): 7.0 | herbicidal effect rating, MOOVA ([17]; 0.1250 kg/ha): 9.0 | herbicidal effect rating, MOOVA ([17]; 0.2500 kg/ha): 9.0
